Some test systems named below: CCRF-CEM leukemia; SN12C renal; SR leukemia; PC-3 prostate; KM12 colon; NCI-H23 lung; A549 NSCLC; LOX IMVI melanoma; OVCAR-5 ovarian; MDA-N; ACHN renal; OVCAR-3 ovarian.
Holding throughout (assay): growth of human tumour cells (NCI), 48 h

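How tested: cells in 96-well plates exposed to compound for 48 hours at five concentrations. TGI: total growth inhibition.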 Where a SMILES comes first, the peptide text is derived from it. The star is where a group is joined. Boc = CC(C)(C)OC(=O)*; Bn = c1ccc(C*)cc1

As for `CCCC(=O)NC(NC1CCCCC1)(C(=O)OCC)C(F)(F)F` (stereo not drawn), the TGI with CCRF-CEM leukemia, with SN12C renal, in the experiment on SR leukemia, in the experiment on PC-3 prostate, with KM12 colon and with NCI-H23 lung was above 100 µM throughout. Besides, the TGI in the experiment with A549 NSCLC, in the experiment on LOX IMVI melanoma, in the experiment with OVCAR-5 ovarian, with MDA-N, in the experiment on ACHN renal and with OVCAR-3 ovarian was above 100 µM throughout.

Consider `CCN(CC)Cc1ccc(C(=S)Nc2ccc(Cl)cc2)s1`, for which the TGI with CCRF-CEM leukemia was 34.1 µM; with SR leukemia it was 24.7 µM; with PC-3 prostate, 28.6 µM; with KM12 colon it was 26.6 µM; in the experiment with NCI-H23 lung it was 9.34 µM; with A549 NSCLC it was 25.4 µM. The TGI with LOX IMVI melanoma came to 16.2 µM; in the experiment with OVCAR-5 ovarian it was 23.7 µM; in the experiment with MDA-N, 23.6 µM; with ACHN renal, 28.3 µM; in the experiment on OVCAR-3 ovarian it was 37.7 µM.

As to `N#CC1C(=S)NC(c2ccccc2)=CC12CCCCC2` (stereo not drawn), the TGI with CCRF-CEM leukemia is 56.4 µM; with SN12C renal, above 100 µM; in the experiment with SR leukemia it was 50.2 µM; in the experiment on PC-3 prostate, above 100 µM; with KM12 colon, 60.2 µM; in the experiment with NCI-H23 lung it was 36.9 µM. In addition, the TGI in the experiment with A549 NSCLC was above 100 µM; with LOX IMVI melanoma, 40.7 µM; in the experiment with OVCAR-5 ovarian, above 100 µM; in the experiment with MDA-N, above 100 µM; in the experiment with ACHN renal, 72.3 µM.

`CCn1c(-c2ccccc2)cs/c1=N\C(P(=O)(O)O)P(=O)(O)O`: the TGI in the experiment with CCRF-CEM leukemia, in the experiment with SR leukemia, with PC-3 prostate, with KM12 colon, in the experiment with NCI-H23 lung and in the experiment on A549 NSCLC was above 100 µM in each case. Further, the TGI in the experiment with LOX IMVI melanoma, in the experiment with OVCAR-5 ovarian, with MDA-N, with ACHN renal and in the experiment with OVCAR-3 ovarian was above 100 µM each time.

`O=C1c2ccccc2C(=O)c2c(NCC(O)CO)ccc(NCC(O)CO)c21` (stereo not drawn): the TGI in the experiment on CCRF-CEM leukemia, with SN12C renal, with SR leukemia, in the experiment with PC-3 prostate, in the experiment with NCI-H23 lung and with A549 NSCLC was above 100 µM each time. Besides, the TGI in the experiment with LOX IMVI melanoma, in the experiment with OVCAR-5 ovarian, with MDA-N, in the experiment on ACHN renal and in the experiment on OVCAR-3 ovarian was above 100 µM in each case.

Consider `Cc1c(C)c2c(c(N)c1C#N)C(=O)N(NC(=O)c1ccccc1)C2=O`, for which the TGI with CCRF-CEM leukemia, with SN12C renal, in the experiment on SR leukemia, in the experiment with PC-3 prostate, with KM12 colon and in the experiment with A549 NSCLC was above 100 µM in each case. Moreover, the TGI with LOX IMVI melanoma, in the experiment with OVCAR-5 ovarian, with MDA-N, in the experiment with ACHN renal and in the experiment on OVCAR-3 ovarian was above 100 µM throughout.

Turning to `CN=C(n1ccnc1)n1ccnc1`, the TGI with CCRF-CEM leukemia, in the experiment on SN12C renal, in the experiment on SR leukemia, in the experiment with PC-3 prostate, with KM12 colon and with NCI-H23 lung was above 100 µM each time. The TGI in the experiment on A549 NSCLC, in the experiment on LOX IMVI melanoma, in the experiment on OVCAR-5 ovarian, in the experiment with MDA-N and in the experiment with OVCAR-3 ovarian was above 100 µM in each case.

Consider `O=C1COc2cccnc2N1CCCCO`, for which the TGI with CCRF-CEM leukemia, with SN12C renal, in the experiment with SR leukemia, in the experiment with PC-3 prostate, with KM12 colon and in the experiment with A549 NSCLC was above 100 µM each time. The TGI with LOX IMVI melanoma, in the experiment on OVCAR-5 ovarian, in the experiment on MDA-N, in the experiment on ACHN renal and with OVCAR-3 ovarian was above 100 µM each time.

On to `CC1(C)/C(=N\NC(N)=O)C2CCC1C2` (stereo not drawn), for which the TGI in the experiment on CCRF-CEM leukemia, with SR leukemia, in the experiment with PC-3 prostate, in the experiment on KM12 colon, with NCI-H23 lung and with A549 NSCLC was above 100 µM throughout. Moreover, the TGI in the experiment with LOX IMVI melanoma, with OVCAR-5 ovarian, with MDA-N, with ACHN renal and in the experiment on OVCAR-3 ovarian was above 100 µM each time.

Turning to `COC(=O)C(CC(C)C)NC(=O)C(C)NC(=O)C(Cc1ccc(OCc2ccccc2)cc1)NC(=O)C(COCc1ccccc1)NC(=O)OC(C)(C)C` (stereo not drawn) (Boc-S(Bn)Y(Bn)AL-OMe; configuration not given here), the TGI in the experiment with SN12C renal, in the experiment with SR leukemia, in the experiment with PC-3 prostate, in the experiment on KM12 colon, in the experiment with NCI-H23 lung and with A549 NSCLC was above 100 µM in each case. Further, the TGI with LOX IMVI melanoma, in the experiment with OVCAR-5 ovarian, in the experiment with MDA-N, with ACHN renal and in the experiment on OVCAR-3 ovarian was above 100 µM each time.

Regarding `CC(=O)Nc1sc(Br)cc1S(=O)(=O)c1ccc(Cl)cc1`, the TGI is above 100 µM in the experiment with CCRF-CEM leukemia; above 100 µM in the experiment on SN12C renal; 50.5 µM in the experiment on SR leukemia; 43.1 µM with PC-3 prostate; 45.4 µM in the experiment with KM12 colon; above 100 µM in the experiment on NCI-H23 lung. In addition, the TGI is 90.5 µM in the experiment on A549 NSCLC; above 100 µM in the experiment with OVCAR-5 ovarian; above 100 µM in the experiment with MDA-N; above 100 µM in the experiment with ACHN renal; 47.2 µM with OVCAR-3 ovarian.

On to `O=C1C2SC34c5c2c2ccccc2n5CCC3CCCN14` (stereo not drawn), for which the TGI with SN12C renal, with SR leukemia, with PC-3 prostate, in the experiment with KM12 colon, in the experiment on NCI-H23 lung and in the experiment with A549 NSCLC was above 100 µM each time. In addition, the TGI in the experiment with LOX IMVI melanoma, in the experiment with OVCAR-5 ovarian, in the experiment on MDA-N, in the experiment with ACHN renal and with OVCAR-3 ovarian was above 100 µM throughout.

For the origin of these results see PubChem BioAssay (NCI).
